Measured values reported in patent US11800874B2, “Composition comprising a selective herbicide and an algal extract, use of an algal extract for detoxifying plants subjected to treatment with a selective herbicide” (LABORATOIRES GOËMAR, priority 2014, dated 2023).
Where two headings read alike, the source gives them in different places.

Key:
Conventional soybean [1] = conditions: in vivo
From the text: (§1) Conventional soybean (that is to say not genetically modified and therefore not resistant to glyphosate) was planted in a greenhouse and left to grow until the 5-leaf stage.
(§2) A control batch was also cultivated, onto which water was sprayed.

Conventional soybean [2] = conditions: in vivo; remark: listed apart in the source
From the text: as §1, §2

[3] = system: Glyphosate-resistant soybean; test: Phytotoxicity of spray treatments on glyphosate-resistant soybean (Example 1); conditions: 4 weeks after treatment
From the text: Glyphosate-resistant soybean was planted in a greenhouse and left to grow until the 5-leaf stage. It was separated into different batches, which were each treated by spraying with the following different compositions:
as §2

Manganese-EDTA complex [Mn]
0%: Necrosed surface area (Conventional soybean [1]) | Plants having a necrosed leaf (Conventional soybean [1]) | Necrosed surface area (Conventional soybean [2]) | Plants having a necrosed leaf (Conventional soybean [2]) | Necrosed surface area ([3]; sprayed composition 0.25% w/v) | Plants having a necrosed leaf ([3]; sprayed composition 0.25% w/v) | Necrosed surface area ([3]; sprayed composition 0.5% w/v) | Plants having a necrosed leaf ([3]; sprayed composition 0.5% w/v)
